Assay results: publication PMC10532956, “Age and Sex-Related Differences in Teicoplanine Isoform Concentrations in SARS-CoV-2 Patients” (Life, 2023)

Conditions: male, human, in vivo, iv

CC(=O)N[C@H]1[C@H](O[C@@H]2c3ccc(c(Cl)c3)Oc3cc4cc(c3O)Oc3ccc(cc3Cl)C[C@H]3NC(=O)[C@H](N)c5ccc(O)c(c5)Oc5cc(O)cc(c5)[C@H](NC3=O)C(=O)N[C@H]4C(=O)N[C@H]3C(=O)N[C@@H]2C(=O)N[C@H](C(=O)O)c2cc(O)cc(O[C@H]4O[C@H](CO)[C@@H](O)[C@H](O)[C@@H]4O)c2-c2cc3ccc2O)O[C@H](CO)[C@@H](O)[C@@H]1O [A3-1]
isoform plasma concentration, median: 0.18 µg/mL
